Measured values as given in US20170087129A1, “COMPOSITIONS AND METHODS FOR THE TREATMENT OF ATHEROSCLEROTIC CARDIOVASCULAR DISEASES WITH PDE4 MODULATORS” (Celgene Corporation, priority 2014, published 2017).

Key:
[1] = system: THP-1 cells; experiment: Inhibition of foam cell formation in THP-1 cells (Oil Red O staining); assay type: cell-based; settings: THP-1 cells + PMA, 50 μg/ml acLDL + 500 U/ml IFN-γ; two doses of 100 nM compound; versus vehicle samples; light microscopy
Experimental: THP-1 cells in suspension were maintained in RPMI 1640 media (PenStep, 10% FBS, 37° C., 5% CO2). The cells plated at 10^5-10^6 cells/well in 24-well plate (500 uL/well). Cell count was 34 at 1:20 and 1:30 dilution. Then, 100 nM PMA was added to allow for differentiation into macrophages, and the mixture was incubated for 24 hours. To the mixture, was added 500 U/mL IFN-gamma, and the resulting mixture was incubated for another 24 hours.
For vehicles, 50 μg/ml of acLDL and 500 U/ml IFN-γ were added to the cells. For those samples that received treatment by Compound A1, a first dose of 100 nM of Compound A1 was added 15 minutes before the addition of acLDL, and a second dose of 100 nM Compound A1 was added after 24 hours. Then, media was removed, and cells washed three times with PBS and fixed in 10% formalin for 10 minutes. Cells were rinsed in PBS (1 minute) and then with 60% isopropanol (15 seconds). Samples were stained with Oil Red O in darkness for 1 minute at 37° C. Samples were rinsed again in 60% isopropanol, then three times with PBS. Wells were kept hydrated until imaging, and samples were visualized using light microscopy.

[2] = system: PDE4 enzyme from U937 human monocytic cells; experiment: Inhibition of PDE4 (enzyme assay, [3H]-cAMP); assay type: biochemical; settings: purified PDE4 enzyme from U937 human monocytic cells; 1 μM cAMP, 45 min at 30° C.
Experimental: Phosphodiesterase 4 enzyme was purified from U937 human monocytic cells by gel filtration chromatography, and phosphodiesterase reactions were carried out as previously described. See, e.g., Muller et al., Bioorg. Med. Chem. Lett., 1998, 8(19): 2669-2674. Briefly, reactions were carried out in 96-well deep-well plates in 50 mM Tris HCl pH 7.5, 5 mM MgCl2, 1 μM cyclic adenosine monophosphate (cAMP), plus 10 nM [^3H]-cAMP for 45 min at 30° C. The reactions were terminated by boiling, treated with 1 mg/ml snake venom, and separated using AG-1X8 ion exchange resin (BioRad). Reactions consumed less than 15% of available substrate.

| SMILES | formation of foam cells [1] | IC50 [2] |
| --- | --- | --- |
| CCOc1cc([C@H](CS(C)(=O)=O)N2C(=O)c3cccc(NC(C)=O)c3C2=O)ccc1OC [Compound A2, (R)—N-(2-(1-(3-ethoxy-4-methoxyphenyl)-2-(methylsulfonyl)ethyl)-1,3-dioxoisoindolin-4-yl)acetamide] | effective in preventing or inhibiting the formation of foam cells | – |
| CCOc1cc([C@@H](CS(C)(=O)=O)N2C(=O)c3cccc(NC(C)=O)c3C2=O)ccc1OC [Compound A1, (S)—N-(2-(1-(3-ethoxy-4-methoxyphenyl)-2-(methylsulfonyl)ethyl)-1,3-dioxoisoindolin-4-yl)acetamide] | significantly reduced formation of foam cells | ~74 nM |
